Experiments:
[1] = system: ectopic discharge in CCI rats; assay: Acute administration, spontaneous ectopic discharge in sural nerve of CCI rats; type: in vivo, rat
Description: The preparation of CCI model rats and the assessment of neuropathic pain state were as described for Example 1. The electrophysiological experiments were performed on CCI rats with neuropathic pain states confirmed by von Frey hair testing as previously described. Compound 1 suspension was made in a vehicle containing 1% DMSO, 66% PEG200 and 33% saline to 5 mg/ml. Rats with neuropathic pain were anaesthetized with thiobutabarbital sodium (inactin, 120 mg/kg, i.p. for induction and thereafter 60 mg/kg, i.p. for maintenance, if necessary). The arterial blood pressure and heart rate were routinely monitored and rectal temperature was continuously monitored and maintained at a physiological range using a thermo-blanket system. The skin of the left hind limb was incised and stitched onto a stainless steel “O” ring to form an oil pool. The sural nerve was carefully exposed and repeatedly teased into small bundles containing only one or a few fibres and examined for spontaneous activity. In acute experiments, when an active fibre was found, a period of at least 20 min control recording was obtained. Subsequently, the effects of the vehicle and Compound 1 (5 mg/kg, i.v.) were examined. Activity was monitored for at least 40 minutes following administration of the drug. The frequency of the spontaneous activity was monitored online and analysed offline after experiment. For i.v. injection, Compound 1 suspension (5 mg/ml) was prepared using a vehicle made of 1% DMSO, 66% polyethelene glycol (PEG 200) and 33% normal saline. The suspension was then sonicated for 30 min before administration.

[2] = system: mice with autoimmune neuropathy; details: preclinical studies; cited from earlier work
[3] = system: lipopolysaccharide-induced polyclonal antibody responses; details: preclinical studies; cited from earlier work
CCI rats [4] = assay: Single oral dose study, mechanical allodynia (von Frey PWT) in rat chronic constriction injury (CCI) model; type: in vivo; details: 20 mg/kg p.o.; for paw withdrawal threshold (PWT): mean±S.E.M.
Description: The rat chronic constriction injury (CCI) model was prepared following the standard protocols (Bennett and Xie, 1988). Briefly, male Sprague-Dawley rats, weighing 150-175 gram at arrival, were anaesthetized with a 5% isofluorane/95% oxygen gas mixture followed by an i.p. injection of sodium pentobarbitone (50 mg/kg). The lateral side of the left hind limb was shaved and sterilized with 75% ethanol. An incision of about 1 cm was made to expose the sciatic nerve. Four loose ligations with 4-0 suture silk were made on the sciatic nerve. The wound was closed in layers with silk suture and the animals were placed in a recovering chamber with the temperature controlled at 30° C. The animals were then returned to their home cage after complete return of consciousness and the return of free movement. A dose of amoxicillin (0.1 ml, 15 mg) was routinely injected intraperitoneally after surgery to prevent infection. In CCI rats, the assessment of paw withdrawal threshold (PWT) in response to the mechanical stimulation started 14 days after surgery. […] The PWT was measured using a series of graduated von Frey hairs. The animals were placed in individual perspex boxes on a raised metal mesh for at least 30 min before the test. Starting from a filament of lower force (1 g), each filament was applied perpendicularly to the centre of the paw pad until it slightly bends for 6 seconds. If the animal withdrew or lifted the paw upon stimulation, then a hair with force immediately lower than that tested would be used. If no response was observed, then a hair with force immediately higher would be used. The lowest amount of force required to induce reliable responses (positive in 3 out of 5 trials) was recorded as the value of PWT. A suspension of Compound 1 was made with 5% DMSO in saline (10 mg/ml). The suspension was sonicated for at least 20 min before application. All data in this study are presented as mean±S.E.M. and are analysed with the student-t-test or one way ANOVA as appropriate. The significance level was set at P<0.05.

[5] = system: ectopic discharge in CCI rats; assay: Chronic dosing, generation of ectopic discharge and PWT in CCI rats; type: in vivo, rat
Description: After confirmation of neuropathic pain state on day 16 post-surgery, the animals (4 for vehicle group and 4 for drug treatment group) were given either vehicle (5% DMSO in saline) or Compound 130 mg/kg p.o., twice a day for 8 days. At the end of the dosing protocol, the PWT was reassessed before the electrophysiological experiment. The sural nerve was repeatedly teased into fine bundles for examination. For a fibre with spontaneous activity, the recording lasted for at least 1 min; for a fiber without obvious spontaneous activity, the recording lasted for at least 30 sec. In each sural nerve, as many fibres as possible were teased and recorded (more than 150 bundles on average in one animal).

[6] = system: rats with diabetic neuropathy; assay: PWT in rats with streptozotocin-induced diabetic neuropathy; type: in vivo, rat
Description: Under isofluorane anaesthesia, adult male Sprague-Dawley rats (150-200 g) were given an intraperitoneal injection of streptozotocin (75 mg/kg, Calbiochem). After injection, particular care was taken to ensure that water and food were available at all time and the beddings were changed frequently. A week after streptozocin injection, the blood glucose content was examined using Advantage II with Accutech strips (Roche). Only rats with blood glucose higher than 12 mM/L (216 mg/DL) were chosen for behavioural study. The assessment of neuropathic pain state using von Frey hairs was the same as described for Example 1. Rats with lowered PWT (<4 g) were used for either vehicle (1 ml/kg, p.o. or Compound 1 (1, 3, 10, and 30 mg/kg p.o.) dosing. The PWT was reassessed at 1, 2, 3, 4 and 6 hours after oral dosing.

CCI rats [7] = assay: Dose-response study, mechanical allodynia (PWT) in CCI model; type: in vivo, rat; details: CCI rats, 1, 3, 10, 30 mg/kg orally, 30-360 min after dosing
Description: The methods for preparing CCI animals and assessing mechanical allodynia using von Frey hairs were as described in Example 1. Four doses of Compound 1 (1, 3, 10, 30 mg/kg) were given orally and the PWT was reassessed at 30, 60, 120, 180, 240 and 360 min after dosing.

CCI rats [8] = assay: Tolerance liability in CCI model (PWT over 7 days of dosing); type: in vivo, rat
Description: The preparation of CCI model rats and the assessment of neuropathic pain state using von Frey hairs were as the same as described for Example 1. The PWT was assessed in the morning for 3 consecutive days prior to the surgery and on days 6, 14, 15 and 16 after surgery. Starting from day 16, the animals were either dosed with vehicle (5% DMSO in saline, 1 ml/kg) or Compound 130 mg/kg p.o., twice a day for 7 days. From day 16 onward, PWT was assessed thereafter every morning and 4 hours after dosing, up to day 23 post surgery.

[9] = system: rat Brennan model of surgical pain; assay: PWT in the rat Brennan model of surgical pain; type: in vivo
Description: The surgical pain model was prepared as described by Brennan et al (1996). Briefly, the rat was anaesthetised with 5% isofluorane in oxygen (2 L/min) for induction followed by an intravenous injection of sodium pentobarbitone (50 mg/kg) prior to surgery. The surgery was carried out under aseptic routines. The left hind paw was sterilized with 75% ethanol solution. A 1.5 cm longitudinal incision was made with a scalpel from about 0.5 cm of the heel edge towards the toes. The plantaris muscle and fascia were elevated and incised longitudinally but the structure of these tissues kept intact. After complete hemostasis with pressure, the skin was closed with stitches of 5-0 suture silk. The animal was routinely given an intraperitoneal injection of Amoxipen 15 mg/kg for prevention of infection after surgery. After surgery, the animals were placed in a temperature-controlled recovering chamber until full return of conscience and voluntary movement, before being returned to their home cages.

[10] = CCI rats after chronic treatment
[11] = doses higher than 3 mg/kg p.o., dose-dependent

## O=C1N=C2SCCN2C(=O)C1Cc1ccc(Cl)cc1 (stereo not shown) [Compound 1, 6-(p-chlorobenzyl)-5H-2,3,6,7-tetrahydro-5,7-dioxothiazolo[3,2-a]pyrimidine]
[1]; first CCI preparation, 5 mg/kg i.v., reduced from 682 imps/min
  ectopic discharge after injection: 426 imps/min
[1]; four fibres, after administration, P<0.01
  firing rate of ectopic discharge, % of control: 57.1±9.0 % of control
[1]; four fibres, before drug 489.7±125.8 imps/min, P<0.01
  average firing rate of ectopic discharge after administration: 307.6±113.4 imps/min
[1]; second CCI preparation, iv injection, reduced from 298 imps/min
  ectopic discharge after injection: 104 imps/min
[2]
  kidney function: restored kidney function
[3]
  lipopolysaccharide-induced polyclonal antibody responses: inhibited
CCI rats [4]
  duration of the effect on PWT: > 6 h
CCI rats [4]; 2 hours after dosing, P<0.05 vs vehicle
  paw withdrawal threshold (PWT): 2.6 ± 0.7 g
CCI rats [4]; 3 hours after dosing, P<0.01 vs vehicle
  paw withdrawal threshold (PWT): 3.0 ± 0.7 g
CCI rats [4]; 4 hours after dosing, P<0.001 vs vehicle
  paw withdrawal threshold (PWT): 6.3 ± 0.8 g
CCI rats [4]; 6 hours after dosing, P<0.001 vs pre-dosing control
  paw withdrawal threshold (PWT): 4.0 ± 0.5 g
[5]; 4 CCI rats, after 8 days of treatment p.o. twice a day
  PWT compared with vehicle-treated: significantly higher
[5]; [10]
  averaged frequency of spontaneous activity: 888.9 ± 148.5 min⁻¹
  comparison of averaged frequency of spontaneous activity with vehicle group: failed to reveal significant difference
[5]; among 633 fibres recorded from 4 treated rats (vehicle 197 of 602)
  fibres with spontaneous activity: 48 fibres
[5]; chronic treatment of CCI rats, vs vehicle, P<0.001 χ2 test
  proportions of fibres with spontaneous activity: significantly reduced
[6]; 1 mg/kg p.o.
  changes in PWT: Neither vehicle or Compound 1 at 1 mg/kg produced significant changes in PWT
[6]; [11]
  changes in PWT: significantly increased the PWT
CCI rats [7]
  effect on PWT: dose-dependently increased the PWT
CCI rats [8]; after the first day's treatment and throughout the 7 day dosing period, p.o. twice a day
  baseline PWT compared with vehicle group: higher than that observed in the vehicle group
CCI rats [8]; on repeat dosing
  time for which CCI-induced mechanical allodynia is alleviated post-dose: 12 h
CCI rats [8]; over 7 days of treatment
  loss of efficacy in reversing lowered PWT: no significant loss of efficacy
[9]
  time after dosing at which the effect on PWT was first observed: 4 h
  time after dosing up to which the effect on PWT lasted: up to 8 hours
[9]; 3 mg/kg, n=7, P>0.05
  changes in PWT: Neither vehicle (n=8) or Compound 1 at 3 mg/kg (n=7) produced significant changes in PWT
[9]; 10 mg/kg
  analgesic effect after 6 hours: had gone
[9]; 10 mg/kg, at 4 hours, from control level 1.50±0.36 g, P<0.05
  PWT: 2.60 ± 0.48 g
[9]; 30 mg/kg, 6 hours post-dose, P<0.001 vs vehicle
  PWT: 5.28 ± 0.66 g
[9]; 30 mg/kg, 8 hours post-dose, P<0.001 vs vehicle
  PWT: 4.16 ± 0.79 g
[9]; 30 mg/kg, at 4 hours, from control level 1.82±3.8 g, P<0.001
  PWT: 3.80 ± 0.44 g
[9]; [11]
  changes in PWT: significantly increased the PWT

Reference: patent US8349845B2, “Thiazolopyrimidines for use in therapy” (Sosei Group Corporation, priority 2005, dated 2013)
